Measured values from patent US9278958B2, “Anti-cancer compounds” (KATHOLIEKE UNIVERSITEIT LEUVEN, priority 2012, dated 2016).
Read-outs that look alike come from different tables or passages of the source.

Experiments:
CEM cells = assay: Cytostatic assay, CEM; type: cell-based; conditions: Homo sapiens, CCRF-CEM
How it was run: (§1)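 Test compound was added to wells holding 5-7.5×10^4 cells. After line-specific growth periods of 48 h to 96 h at 37° C in a moist atmosphere with regulated CO2, the number of cells was recorded by Coulter counting.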

Molt4/C8 cells = assay: Cytostatic assay, Molt4/C8; type: cell-based; conditions: Table 2
How it was run: as §1

Sup T1 cells = assay: Cytostatic assay, Sup T1; type: cell-based; conditions: Homo sapiens, Table 2, read-out: Cytostatic activity (μM) Sup T 1
How it was run: as §1

MT-2 cells = assay: Cytostatic assay, MT-2; type: cell-based; conditions: Homo sapiens, MT2; Table 2
How it was run: as §1

C8166 cells = assay: Cytostatic assay, C8166; type: cell-based; conditions: Homo sapiens, Table 2
How it was run: as §1

HUT-78 cells = assay: Cytostatic assay, HUT-78; type: cell-based; conditions: Homo sapiens, HuT78; Table 2
How it was run: as §1

MT-4 cells = assay: Cytostatic assay, MT-4; type: cell-based; conditions: Homo sapiens, MT4; Table 2
How it was run: as §1

[1] = system: HL60, human leukemia cells; assay: Cytostatic assay, HL-60; type: cell-based; conditions: Table 2
How it was run: as §1

[2] = system: U937, human monocytic cells; assay: Cytostatic assay, U937; type: cell-based; conditions: U-937, Table 2
How it was run: as §1

[3] = system: THP-1, human monocytic cells; assay: Cytostatic assay, THP-1; type: cell-based; conditions: Table 2
How it was run: as §1

[4] = system: Raji, human B-lymphoma cells; assay: Cytostatic assay, Raji; type: cell-based; conditions: Table 2
How it was run: as §1

L1210 cells = assay: Cytostatic assay, L1210; type: cell-based; conditions: Mus musculus, Table 2
How it was run: as §1

[5] = system: OST TK- osteosarcoma cells; assay: Cytostatic assay, OST TK-; type: cell-based; conditions: Homo sapiens; Table 3
How it was run: as §1

[6] = system: MCF-7 mammary carcinoma cells; assay: Cytostatic assay, MCF-7; type: cell-based; conditions: Homo sapiens, MCF7; Table 3
How it was run: as §1

[7] = system: FM3A mammary carcinoma cells; assay: Cytostatic assay, FM3A; type: cell-based, murine; conditions: Mus musculus, Table 3
How it was run: as §1

[8] = system: HeLa cervix carcinoma cells; assay: Cytostatic assay, HeLa; type: cell-based, human; conditions: Homo sapiens; Table 3; read-out: Cytostatic activity (μM) Hela
How it was run: as §1

[9] = system: Caki-1 kidney carcinoma cells; assay: Cytostatic assay, Caki-1; type: cell-based; conditions: Homo sapiens, Table 3
How it was run: as §1

[10] = system: Caki-2 kidney carcinoma cells; assay: Cytostatic assay, Caki-2; type: cell-based; conditions: Homo sapiens, Table 3
How it was run: as §1

[11] = system: 293T embryonic kidney cells; assay: Cytostatic assay, 293T; type: cell-based; conditions: Homo sapiens, HEK-293T; Table 3
How it was run: as §1

[12] = system: HT29 colorectal carcinoma cells; assay: Cytostatic assay, HT29; type: cell-based; conditions: Homo sapiens, HT-29; Table 3
How it was run: as §1

U87 glioma cells = assay: Cytostatic assay, U87; type: cell-based; conditions: Homo sapiens, U-87 MG; Table 3
How it was run: as §1

[13] = system: HEL embryonic lung fibroblast cells; assay: Cytostatic assay, HEL; type: cell-based; conditions: Homo sapiens, Table 3
How it was run: as §1

[14] = system: BAEC aortic endothelial cells; assay: Cytostatic assay, BAEC; type: cell-based, bovine; conditions: Bos taurus, Table 3
How it was run: as §1

[15] = system: PC3 (rega) prostate cancer cells; assay: Cytostatic assay, PC3 (rega); type: cell-based; conditions: Table 4
How it was run: as §1

BPH-1 (UZ) = assay: Cytostatic assay, BPH-1 (UZ); type: cell-based; conditions: Homo sapiens, Table 4
How it was run: as §1

[16] = system: DU145 (UZ) prostate cancer cells; assay: Cytostatic assay, DU145 (UZ); type: cell-based; conditions: Homo sapiens, DU-145; Table 4
How it was run: as §1

[17] = system: PC-3 (UZ) prostate cancer cells; assay: Cytostatic assay, PC-3 (UZ); type: cell-based; conditions: Table 4
How it was run: as §1

[18] = system: LNCaP (UZ) prostate cancer cells; assay: Cytostatic assay, LNCaP (UZ); type: cell-based; conditions: Homo sapiens, Table 4
How it was run: as §1

[19] = system: PNT1A (UZ) prostate cells; assay: Cytostatic assay, PNT1A (UZ); type: cell-based; conditions: Homo sapiens, Table 4
How it was run: as §1

[20] = system: 22Rv1 (UZ) prostate cancer cells; assay: Cytostatic assay, 22Rv1 (UZ); type: cell-based; conditions: Homo sapiens, Table 4
How it was run: as §1

PLC/PRF/5 hepatoma cells = assay: Cytostatic assay, PLC/PRF/5; type: cell-based; conditions: Homo sapiens, Table 4
How it was run: as §1

HepG2C3A hepatoma cells = assay: Cytostatic assay, HepG2C3A; type: cell-based; conditions: Homo sapiens, HepG2/C3A; Table 4
How it was run: as §1

Huh-7 hepatoma cells = assay: Cytostatic assay, Huh-7; type: cell-based; conditions: Homo sapiens, Table 4
How it was run: as §1

[21] = system: DNA synthesis in CEM cells; assay: Antimetabolic activity assay, [CH3-3H]dThd incorporation (DNA synthesis), CEM; type: cell-based; conditions: Homo sapiens, CCRF-CEM, incorporation into TCA-insoluble material
Method: (§2) Radiolabeled precursors of DNA synthesis ([^3H-methyl]dThd), RNA synthesis ([5-^3H]Urd), and protein synthesis ([4,5-^3H]leu) were added to 10^5 CEM cell cultures in the 200 μl-wells of a microtiter plate at 1 μCi for each precursor in the presence of varying concentrations of the test compounds (5-fold dilution series). The cells were allowed to proliferate for 20 hrs at 37° C. in a humidified, CO2-controlled atmosphere. At the end of the incubation period, the contents of the wells were brought onto 25-mm glass fiber filters and further processed for measurement of acid-insoluble radioactivity.

[22] = system: DNA synthesis in Raji cells; assay: Antimetabolic activity assay, [CH3-3H]dThd incorporation (DNA synthesis), Raji; type: cell-based; conditions: Homo sapiens, incorporation into TCA-insoluble material
Method: [The procedure below names another cell line; the source lists this cell line under the same test.] as §2

[23] = system: RNA synthesis in CEM cells; assay: Antimetabolic activity assay, [5-3H]uridine incorporation (RNA synthesis), CEM; type: cell-based; conditions: Homo sapiens, CCRF-CEM, incorporation into TCA-insoluble material
Method: as §2

[24] = system: RNA synthesis in Raji cells; assay: Antimetabolic activity assay, [5-3H]uridine incorporation (RNA synthesis), Raji; type: cell-based; conditions: Homo sapiens, incorporation into TCA-insoluble material
Method: [The procedure below names another cell line; the source lists this cell line under the same test.] as §2

[25] = system: protein synthesis in CEM cells; assay: Antimetabolic activity assay, [4,5-3H]leucine incorporation (protein synthesis), CEM; type: cell-based; conditions: Homo sapiens, CCRF-CEM, incorporation into TCA-insoluble material
Method: as §2

[26] = system: protein synthesis in Raji cells; assay: Antimetabolic activity assay, [4,5-3H]leucine incorporation (protein synthesis), Raji; type: cell-based; conditions: Homo sapiens, incorporation into TCA-insoluble material
Method: [The procedure below names another cell line; the source lists this cell line under the same test.] as §2

[27] = Table 2, read-out: Cytostatic activity (μM) CEM

Molecule `COc1ccccc1CCc1cc(C#N)c(N)s1` [TR585, 2-Amino-5-[2-(2-methoxy-phenyl)-ethyl]-thiophene-3-carbonitrile] has an IC50 (CEM cells; Table 1a, read-out: IC50 μM (CEM)) of 8.3 µM, an IC50 (CEM cells; [27]) of 8.3 ± 2.4 µM and an IC50 (Molt4/C8 cells) of 2 ± 0.2 µM. It also gave an IC50 (Sup T1 cells) of 4.7 ± 0.38 µM, an IC50 (MT-2 cells) of 4.75 ± 0.08 µM and an IC50 (C8166 cells) of 16 ± 6.5 µM. It also gave an IC50 (HUT-78 cells) of 7.1 ± 1.3 µM, an IC50 (MT-4 cells) of 8.1 ± 0.78 µM and an IC50 [1] of 3.5 ± 0.57 µM. The IC50 [2] was 3.4 ± 2.8 µM, the IC50 [3] was 3.8 ± 0.6 µM and the IC50 [4] was 13 ± 3.5 µM. For the same molecule, the IC50 (L1210 cells) was 15 ± 4 µM, the IC50 [5] was 3.96 ± 1.56 µM and the IC50 [6] was 5.42 ± 0.69 µM. The IC50 [7] was 25 ± 0.71 µM, the IC50 [8] was 8.3 ± 1.5 µM and the IC50 [9] was 4.6 ± 1.3 µM. It also gave an IC50 [10] of 4.8 ± 4.5 µM, an IC50 [11] of 10 ± 0.071 µM and an IC50 [12] of 8.9 ± 0.92 µM. The IC50 (U87 glioma cells) was 10 ± 0.78 µM, the IC50 [13] was 7.2 ± 0.49 µM and the IC50 [14] was 9.7 ± 1.8 µM. For the same molecule, the IC50 [15] was 1.7 ± 0.35 µM, the IC50 (BPH-1 (UZ)) was 7 ± 0.42 µM and the IC50 [16] was 6.4 ± 1.8 µM. For the same molecule, the IC50 [17] was 2.6 ± 0.64 µM, the IC50 [18] was 2.7 ± 0.95 µM and the IC50 [19] was 8 ± 0.42 µM. For the same molecule, the IC50 [20] was 9.4 ± 5.8 µM, the IC50 (PLC/PRF/5 hepatoma cells) was 6.7 ± 0.64 µM and the IC50 (HepG2C3A hepatoma cells) was 7.2 ± 4 µM. For the same molecule, the IC50 (Huh-7 hepatoma cells) was 8.3 ± 0.78 µM, the IC50 [21] was > 100 µM and the IC50 [22] was ≥ 100 µM. The IC50 [23] was ≥ 100 µM, the IC50 [24] was ≥ 100 µM and the IC50 [25] was 11 ± 8 µM. For the same molecule, the IC50 [26] was ≥ 100 µM.

`CCOC(=O)c1c(N)sc(CCc2cc(OC)ccc2OC)c1C(=O)OCC` [TR592, 2-Amino-5-[2-(2,5-dimethoxy-phenyl)-ethyl]-thiophene-3,4-dicarboxylic acid diethyl ester] was tested, and the IC50 (CEM cells; [27]) was 20 ± 6 µM, the IC50 (Molt4/C8 cells) was 24 ± 17 µM and the IC50 (Sup T1 cells) was 4.1 ± 0.4 µM. It also gave an IC50 (MT-2 cells) of 8.1 ± 1.2 µM, an IC50 (C8166 cells) of 25 ± 3.5 µM and an IC50 (HUT-78 cells) of 26 ± 3.5 µM. For the same molecule, the IC50 (MT-4 cells) was 36 ± 16 µM, the IC50 [1] was 17 ± 0.7 µM and the IC50 [2] was 20 ± 15 µM. It also gave an IC50 [3] of 20 ± 1.4 µM, an IC50 [4] of 41 ± 7.1 µM and an IC50 [5] of 17 ± 5.7 µM. For the same molecule, the IC50 [6] was 27 ± 19 µM, the IC50 [7] was 33 ± 9 µM and the IC50 [8] was 11 ± 3 µM. It also gave an IC50 [9] of 24 ± 0.7 µM, an IC50 [10] of 42 ± 2.1 µM and an IC50 [11] of 30 ± 7.1 µM. For the same molecule, the IC50 [12] was 43 ± 4.2 µM, the IC50 (U87 glioma cells) was 39 ± 2.8 µM and the IC50 [13] was 35 ± 6.4 µM. It also gave an IC50 [14] of 31 ± 4.2 µM, an IC50 [15] of 12 ± 2.1 µM and an IC50 (BPH-1 (UZ)) of 28 ± 3.5 µM. The IC50 [16] was 18 ± 2.1 µM, the IC50 [17] was 8.5 ± 0.85 µM and the IC50 [18] was 4.1 ± 3.6 µM. It also gave an IC50 [19] of 31 ± 0.71 µM, an IC50 [20] of 14 ± 8.3 µM and an IC50 (PLC/PRF/5 hepatoma cells) of 25 µM. It also gave an IC50 (HepG2C3A hepatoma cells) of 34 ± 12 µM, an IC50 (Huh-7 hepatoma cells) of 34 ± 14 µM and an IC50 [21] of 17 ± 8 µM. For the same molecule, the IC50 [22] was 25 ± 16 µM, the IC50 [23] was 31 ± 22 µM and the IC50 [24] was 31 ± 19 µM. For the same molecule, the IC50 [25] was 17 µM and the IC50 [26] was 23 ± 7 µM.
